Eight molecules from PubChem BioAssay (NCI) can be followed below.

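Grown in 96-well plates, cells were treated for 48 hours with each compound at five concentrations. Insufficient inhibition: endpoint recorded as highest concentration tested. Abbreviation: GI50, concentration required for 50% inhibition of growth. The concentration for full growth arrest is given as TGI.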

Test systems include A498 renal; CAKI-1 renal; UACC-257 melanoma; MCF7 breast; SF-268 CNS; SNB-19 CNS; COLO 205 colon; HS 578T breast; UACC-62 melanoma; A549 NSCLC.
Holding throughout (test): DTP human tumour cell line panel, 48 h

By GI50 is commonly meant the concentration giving 50% growth inhibition. As usually defined, the TGI is the concentration giving total growth inhibition. Higher therefore signals less potent growth arrest.

In the case of `Cc1ccc(C(=O)Nc2ccc(CN3CCN(C)CC3)c(C(F)(F)F)c2)cc1C#Cc1cncc2ncccc12`, the GI50 was 0.209 µM with A498 renal; 0.222 µM in the test on CAKI-1 renal; 0.402 µM in the test on UACC-257 melanoma; 1.46 µM with MCF7 breast; 0.408 µM in the test with SF-268 CNS; 1.29 µM with SNB-19 CNS. Further, the GI50 with COLO 205 colon is 0.221 µM; in the test on HS 578T breast, 0.232 µM; in the test with UACC-62 melanoma, 0.102 µM; with A549 NSCLC it was 0.473 µM. For the same molecule, the TGI was 0.656 µM in the test with A498 renal; 2.52 µM in the test with CAKI-1 renal; 4.42 µM in the test with UACC-257 melanoma; 3.44 µM with MCF7 breast; 4.33 µM in the test with SF-268 CNS; 2.62 µM in the test with SNB-19 CNS. In addition, the TGI is 5.56 µM with COLO 205 colon, 1.08 µM in the test with HS 578T breast, 1.26 µM with UACC-62 melanoma and 5.24 µM in the test on A549 NSCLC.

Regarding `COc1ccc2nc(-c3ccccc3)cc(Nc3ccc(/C(C)=N/O)cc3)c2c1`, the GI50 was 2.03 µM with A498 renal; 2.5 µM with CAKI-1 renal; 2.88 µM in the test on UACC-257 melanoma; 3.35 µM with MCF7 breast; 3.39 µM in the test with SF-268 CNS; 5.38 µM in the test on SNB-19 CNS. For the same molecule, the GI50 in the test with COLO 205 colon is 4.91 µM; in the test with HS 578T breast, 2.24 µM; with UACC-62 melanoma, 2.1 µM; in the test with A549 NSCLC, 3.42 µM. Besides, the TGI was 4.98 µM with A498 renal; 7.78 µM in the test on UACC-257 melanoma; more than 19.7 µM in the test on MCF7 breast; more than 23 µM with SF-268 CNS; more than 100 µM in the test on SNB-19 CNS; more than 100 µM in the test with COLO 205 colon. Besides, the TGI in the test with HS 578T breast turned out to be 5.31 µM; in the test with UACC-62 melanoma, 4.65 µM; with A549 NSCLC, 32 µM.

`O=C(Cc1ccc(/C=C/C(=O)c2ncc[nH]2)cc1)Nc1ccc(Br)cc1`: the GI50 in the test on A498 renal was 4.72 µM; with CAKI-1 renal, 2.92 µM; with UACC-257 melanoma it was 6.64 µM; in the test with MCF7 breast it was 0.569 µM; in the test with SF-268 CNS it was 1.83 µM; in the test with SNB-19 CNS it was 2.54 µM. Moreover, the GI50 with COLO 205 colon was 2.57 µM; with HS 578T breast, 7.94 µM; in the test with UACC-62 melanoma it was 2.85 µM; with A549 NSCLC, 6.06 µM. Besides, the TGI is 13.7 µM in the test with A498 renal; 8.48 µM in the test on CAKI-1 renal; more than 16.7 µM in the test with UACC-257 melanoma; more than 16.7 µM in the test with MCF7 breast; more than 16.7 µM in the test with SF-268 CNS; 7.99 µM in the test on SNB-19 CNS. For the same molecule, the TGI in the test with COLO 205 colon was 5.74 µM; in the test on HS 578T breast it was more than 16.7 µM; in the test with UACC-62 melanoma, 6.11 µM; with A549 NSCLC, more than 16.7 µM.

Regarding `CC(C)[C@@H](C(=O)O[C@@H]1/C=C/C(=O)O[C@@H](C)CCC/C=C/[C@@H]2C[C@H](O)C[C@H]21)[N+](C)(C)C`, the GI50 in the test on A498 renal, in the test with CAKI-1 renal, in the test on UACC-257 melanoma, with MCF7 breast, in the test on SF-268 CNS and with SNB-19 CNS was more than 100 µM throughout. In addition, the GI50 in the test with COLO 205 colon, with HS 578T breast, in the test on UACC-62 melanoma and with A549 NSCLC was more than 100 µM each time. Further, the TGI in the test on A498 renal, with CAKI-1 renal, with UACC-257 melanoma, in the test with MCF7 breast, with SF-268 CNS and with SNB-19 CNS was more than 100 µM throughout. Besides, the TGI with COLO 205 colon, with HS 578T breast, in the test with UACC-62 melanoma and in the test with A549 NSCLC was more than 100 µM in each case.

On to `CC12C=CC(C)(O1)C1C2c2ccccc2S1(=O)=O` (centres undefined), for which the GI50 was more than 100 µM in the test on A498 renal; 82 µM in the test on CAKI-1 renal; 41.7 µM in the test on UACC-257 melanoma; 50.4 µM with MCF7 breast; 68 µM in the test on SF-268 CNS; more than 100 µM in the test on SNB-19 CNS. Besides, the GI50 was more than 100 µM with COLO 205 colon, 46.2 µM in the test with HS 578T breast, more than 100 µM in the test on UACC-62 melanoma and more than 100 µM in the test on A549 NSCLC. Moreover, the TGI in the test on A498 renal, in the test with CAKI-1 renal, in the test with UACC-257 melanoma, in the test on MCF7 breast, with SF-268 CNS and with SNB-19 CNS was more than 100 µM throughout. In addition, the TGI in the test with COLO 205 colon, with HS 578T breast, with UACC-62 melanoma and with A549 NSCLC was more than 100 µM in each case.

For `O=C1C[C@@H](c2ccccc2)NCCCCN(O)CCCN1`, the concentration for total growth inhibition (TGI) in the test on A498 renal, in the test on CAKI-1 renal, in the test on UACC-257 melanoma, in the test on MCF7 breast, with SF-268 CNS and in the test with SNB-19 CNS was more than 100 µM in each case. Also, the TGI in the test on COLO 205 colon, in the test with HS 578T breast, with UACC-62 melanoma and in the test on A549 NSCLC was more than 100 µM each time.

As to `NC(=O)Nc1ccc2ncnc(Nc3ccc(Cl)cc3)c2c1`, the GI50 in the test with A498 renal is 0.896 µM; in the test with CAKI-1 renal it was 1.6 µM; in the test with UACC-257 melanoma it was 22 µM; with MCF7 breast it was 26.9 µM; with SF-268 CNS it was 21.7 µM; in the test on SNB-19 CNS, 14.1 µM. The GI50 in the test with COLO 205 colon was 30.6 µM; with HS 578T breast, 17 µM; in the test with UACC-62 melanoma, 14.3 µM; with A549 NSCLC it was 18.4 µM. Further, the TGI in the test on A498 renal was 16.2 µM; in the test with CAKI-1 renal, 42.2 µM; in the test on UACC-257 melanoma it was 66 µM; in the test on MCF7 breast, more than 100 µM; in the test on SF-268 CNS it was more than 100 µM; in the test with SNB-19 CNS it was more than 100 µM. Further, the TGI in the test with COLO 205 colon was more than 100 µM; in the test with HS 578T breast, 66.4 µM; in the test on UACC-62 melanoma, 37.3 µM; in the test with A549 NSCLC, more than 100 µM.

For `N#Cc1cc2cc3c4c(c2oc1=O)CCCN4CCC3`, the TGI in the test with A498 renal, in the test with CAKI-1 renal, in the test with UACC-257 melanoma, in the test on MCF7 breast, in the test on SF-268 CNS and with SNB-19 CNS was more than 100 µM in each case. The TGI with COLO 205 colon, in the test with HS 578T breast, in the test with UACC-62 melanoma and in the test on A549 NSCLC was more than 100 µM in each case.
